From the NIST ThermoML archive (doi:10.1021/acs.jced.5b00105)

What was measured:
[1] = xn = mol fraction of the nth substance listed; conditions: x2 = 0; for surface tension liquid-gas: Drop volume; for viscosity / mass density: 100 kPa, Liquid; for viscosity: Concentric cylinders viscometry; for mass density: Vibrating tube method
[2] = refractive index (Na D-line) (dimensionless); xn = mol fraction of the nth substance listed; conditions: 100 kPa, Liquid, x2 = 0
[3] = refractive index (Na D-line) (dimensionless); conditions: 100 kPa, Liquid
[4] = for surface tension liquid-gas: Drop volume; for viscosity / mass density: 100 kPa, Liquid; for viscosity: Concentric cylinders viscometry; for mass density: Vibrating tube method

CC(C)CC(C)(C)C [2,2,4-trimethylpentane] + CC1CCCCC1
Conditions | mass density, [1] [kg/m3] | refractive index, [2] | surface tension liquid-gas, [1] [mN/m] | viscosity, [1] [mPa·s]
293.15 K | 691.91 | 1.3921 | 18.94 | 0.518
298.15 K | 687.82 | 1.3886 | 18.39 | 0.493
303.15 K | 683.68 | 1.3876 | 17.99 | 0.47
308.15 K | 679.51 | 1.3848 | 17.58 | 0.449
313.15 K | 675.32 | 1.3833 | – | 0.43
318.15 K | 671.05 | 1.3785 | – | 0.414
323.15 K | 666.8 | 1.376 | – | 0.398
333.15 K | 658.2 | – | – | 0.371
343.15 K | 649.44 | – | – | 0.348

CC(C)CC(C)(C)C [2,2,4-trimethylpentane]
Conditions | mass density, [4] [kg/m3] | refractive index, [3] | surface tension liquid-gas, [4] [mN/m] | viscosity, [4] [mPa·s]
293.15 K | 691.91 | 1.3921 | 18.94 | 0.518
298.15 K | 687.82 | 1.3886 | 18.39 | 0.493
303.15 K | 683.68 | 1.3876 | 17.99 | 0.47
308.15 K | 679.51 | 1.3848 | 17.58 | 0.449
313.15 K | 675.32 | 1.3833 | – | 0.43
318.15 K | 671.05 | 1.3785 | – | 0.414
323.15 K | 666.8 | 1.376 | – | 0.398
333.15 K | 658.2 | – | – | 0.371
343.15 K | 649.44 | – | – | 0.348

CCCCC1CCCCC1 [butylcyclohexane]
Conditions | mass density, [4] [kg/m3] | refractive index, [3] | surface tension liquid-gas, [4] [mN/m] | viscosity, [4] [mPa·s]
293.15 K | 799.37 | 1.4403 | 26.81 | 1.304
298.15 K | 795.63 | 1.4377 | 25.87 | 1.199
303.15 K | 791.88 | 1.4355 | 25.49 | 1.109
308.15 K | 788.12 | 1.4333 | 24.73 | 1.031
313.15 K | 784.35 | 1.4314 | – | 0.961
318.15 K | 780.49 | 1.429 | – | 0.9
323.15 K | 776.7 | 1.4268 | – | 0.844
333.15 K | 769.09 | – | – | 0.749
343.15 K | 761.43 | – | – | 0.671

CC1CCCCC1 [methylcyclohexane]
Conditions | mass density, [4] [kg/m3] | refractive index, [3] | surface tension liquid-gas, [4] [mN/m] | viscosity, [4] [mPa·s]
293.15 K | 769.35 | 1.4232 | 23.87 | 0.735
298.15 K | 765.05 | 1.4199 | 23.02 | 0.692
303.15 K | 760.71 | 1.419 | 22.55 | 0.651
308.15 K | 756.37 | 1.4168 | 22.12 | 0.615
313.15 K | 752 | 1.415 | – | 0.58
318.15 K | 747.58 | 1.4102 | – | 0.549
323.15 K | 743.17 | 1.4078 | – | 0.522
333.15 K | 734.29 | – | – | 0.476
343.15 K | 725.31 | – | – | 0.439

CC(C)CC(C)(C)C [2,2,4-trimethylpentane] + CCC1CCCCC1
Conditions | mass density, [1] [kg/m3] | refractive index, [2] | surface tension liquid-gas, [1] [mN/m] | viscosity, [1] [mPa·s]
293.15 K | 691.91 | 1.3921 | 18.94 | 0.518
298.15 K | 687.82 | 1.3886 | 18.39 | 0.493
303.15 K | 683.68 | 1.3876 | 17.99 | 0.47
308.15 K | 679.51 | 1.3848 | 17.58 | 0.449
313.15 K | 675.32 | 1.3833 | – | 0.43
318.15 K | 671.05 | 1.3785 | – | 0.414
323.15 K | 666.8 | 1.376 | – | 0.398
333.15 K | 658.2 | – | – | 0.371
343.15 K | 649.44 | – | – | 0.348

CCC1CCCCC1 [ethylcyclohexane]
Conditions | mass density, [4] [kg/m3] | refractive index, [3] | surface tension liquid-gas, [4] [mN/m] | viscosity, [4] [mPa·s]
293.15 K | 787.98 | 1.4337 | 25.47 | 0.848
298.15 K | 783.97 | 1.4301 | 24.76 | 0.793
303.15 K | 779.93 | 1.4295 | 24.55 | 0.745
308.15 K | 775.88 | 1.4278 | 23.74 | 0.702
313.15 K | 771.82 | 1.4259 | – | 0.663
318.15 K | 767.69 | 1.4204 | – | 0.628
323.15 K | 763.59 | 1.4187 | – | 0.597
333.15 K | 755.35 | – | – | 0.541
343.15 K | 747.03 | – | – | 0.496

CC(C)CC(C)(C)C [2,2,4-trimethylpentane] + CCCCC1CCCCC1
Conditions | mass density, [1] [kg/m3] | refractive index, [2] | surface tension liquid-gas, [1] [mN/m] | viscosity, [1] [mPa·s]
293.15 K | 691.91 | 1.3921 | 18.94 | 0.518
298.15 K | 687.82 | 1.3886 | 18.39 | 0.493
303.15 K | 683.68 | 1.3876 | 17.99 | 0.47
308.15 K | 679.51 | 1.3848 | 17.58 | 0.449
313.15 K | 675.32 | 1.3833 | – | 0.43
318.15 K | 671.05 | 1.3785 | – | 0.414
323.15 K | 666.8 | 1.376 | – | 0.398
333.15 K | 658.2 | – | – | 0.371
343.15 K | 649.44 | – | – | 0.348
